# Experimental data taken from publication PMC10952535, “The differential binding and biological efficacy of auxin herbicides” (Pest Management Science, 2022).
# What was measured:
# AtAFB2 [1] = target: T1, AtAFB2 (Arabidopsis thaliana, UniProt Q9LW29); test: SPR single cycle kinetics, AtAFB2; assay type: binding; details: averaged equilibrium dissociation constant, SPR single cycle kinetics; read-out: Ave KD
# T1 construct: His10 (N, cleaved yes); eGFP (N, cleaved yes); FLAG (N, cleaved yes); made in house; host or cells: baculovirus; Trichoplusia ni Hi5 cells (virus generated in Sf9)
# Method: (§1) Auxin binding assays using surface plasmon resonance (SPR) were performed on a Biacore 2000 as described previously.[3], [18], [23] Protein was stored on ice and protein concentrations were assayed by A280 nm measurement (nanodrop, Thermo Scientific). Briefly, AtAux/IAA7 degron peptide was immobilized on streptavidin‐coated SPR chips, and binding was measured in the presence of IAA or auxin analogue by recruitment of the TIR1/AFB protein from solution as the co‐receptor complex formed on the chip. Kinetic analyses were performed by single cycle kinetics on a Biacore T200 (Cytiva Life Sciences), titrating compounds against a fixed concentration of TIR1 before injection. The degron peptide density on the chips was controlled so that R max < 300 Response UNits (RU).
# AtAFB5 [2] = target: T2, AtAFB5 (Arabidopsis thaliana, UniProt Q9LTX2); test: biochemical; assay type: binding; details: averaged equilibrium dissociation constant, SPR single cycle kinetics; read-out: Ave KD
# T2 construct: His10 (N, cleaved yes); eGFP (N, cleaved yes); FLAG (N, cleaved yes); made in house; host or cells: baculovirus; Trichoplusia ni Hi5 cells (virus generated in Sf9)
# Method: as §1
# AtTIR1 [3] = target: T3, AtTIR1 (Arabidopsis thaliana, UniProt Q570C0); test: biochemical; assay type: binding; details: for Kd: averaged equilibrium dissociation constant, SPR single cycle kinetics, read-out: Ave KD
# T3 construct: His10 (N, cleaved yes); eGFP (N, cleaved yes); FLAG (N, cleaved yes); made in house; host or cells: baculovirus; Trichoplusia ni Hi5 cells (virus generated in Sf9)
# Method: as §1
# [4] = system: Arabidopsis thaliana wild type (WT) Col‐0; test: Foliar efficacy bioassay, wild type; assay type: in vivo; details: foliar application; for GR50 (DW % of NT): dry weight at 14 DAT
# Method: (§2) Bioassays were carried out with the model species Arabidopsis thaliana. The wild type (WT) Col‐0 line was compared to an afb5‐1 mutant line in a Col‐0 background containing a missense mutation of R609K.[11] A. thaliana seeds were sown on Metro‐mix 360 potting mix (Sungro Horticulture) supplemented with vermiculite and stratified for 3 days at 4 °C in the dark. Flats were moved to a growth chamber (as above) and a plastic lid was placed on the flat. On germination, the lid was removed. After 2 weeks in the growth chamber, seedlings were transplanted into 3‐in. pots with Metro‐mix 360 potting mix and moved to a greenhouse. The greenhouse was maintained at a day/night temperature of 23/22 °C and supplemented with light to complete a 16 h photoperiod. Plants were allowed to recover from transplanting for 1 week prior to applications. A. thaliana seedlings were sprayed with test compounds at five rates with four replications. Tests included nontreated and solvent check controls. Individual compound doses varied and were based on plate test data or anecdotal potency. Compounds were formulated as technical material and were initially dissolved in 1 part 97:3 (v/v) acetone: dimethylsufoxide (DMSO) followed by 5 parts 1.5% (v/v) Agridex crop oil concentrate in distilled water to give a final concentration of 1.25% (v/v) Agridex. Formulated compounds were sprayed at a volume of 187 L ha^−1 at a spray height of 43 cm above the plants with an overhead Mandel track sprayer set with 8002 E Tee jet nozzle. Plants were treated at rosette stage just prior to or at initiation of bolting. After spray application, plants were allowed to dry then moved back to the greenhouse. Plants were grown in the greenhouse (same conditions as above) for 2 weeks until harvest. Visual injury/growth reduction observations were made at 7 and 14 days after treatment (DAT) and scored where 0% = no growth reduction and 100% = complete growth reduction or plant death. At 14 DAT the plants were harvested and dried to collect dry weight (DW) biomass.
# (§3) The data collected in the foliar application of compounds generated a measure of sensitivity or dose response. The data was analyzed by regression in JMP 10.0 and fit to a nonlinear exponential three parameter fit model:
# (§4) where a is the asymptote, b is the scale and c is the rate of growth. The model was used to determine the herbicidal dose that caused 50% reduction in growth (GR50). GR50 values were compared between mutant and WT to give an indication of fold resistance over WT (Table 3). A log‐logistic model[24] was also used to fit the data and gave similar GR50 values with greater standard errors without changing the pattern of responsiveness.
# AtAFB2 [5] = target: T1, AtAFB2; test: SPR relative binding (co-receptor complex formation with Aux/IAA7 degron), AtAFB2; details: 50 μM compound, compared to IAA
# Method: as §1
# AtTIR1 [6] = target: T3, AtTIR1; test: SPR relative binding (co-receptor complex formation with Aux/IAA7 degron), AtTIR1; details: 50 μM compound, compared to IAA
# Method: as §1
# [7] = system: Arabidopsis thaliana afb5‐1 seedlings; test: Root growth inhibition bioassay, afb5‐1 mutant; assay type: in vivo; details: afb5‐1 vs WT dose-response, 8 days
# Method: A. thaliana seed was surface sterilized in 10 mL of 50% bleach and two drops of Tween‐20 for 12 min and rinsed six times with sterile water. Sterile growth media consisted of half‐strength Murashige and Skoog salts supplemented with 0.4% agar and 0.8% sucrose. In a laminar flow hood, 8 mL of liquid media was transferred to sterile test‐tubes placed in a heat block to maintain media in a liquid state. Compounds were previously diluted in 50/50 DMSO/water to a known molar concentration. A 50‐μL aliquot of diluted compound was added to each tube to give a specified final concentration, normally 10, 1, 0.1, 0.01 or 0.001 μM. A single tube was treated with solvent only as a control. Test compounds were mixed into the media by pipetting up and down three times, then 6 mL of media with test compound was added to one well in a six‐well plate, working from low‐to‐high concentration, and allowed to solidify in the laminar flow hood. Approximately 15 sterilized seeds were placed on the solidified surface and the remaining 2 mL of liquid media was added to cover and disperse seeds. Plates were sealed with paraffin and moved to a Conviron growth chamber set to 60% humidity, 25 °C and light intensity 100 μE m^2 s^−1 with a 16 h photoperiod. After 8 days primary root measurements of five random plants were taken by removing plants from media and measuring with a ruler. Treatments were compared against the solvent control to determine percentage root growth inhibition. Each experiment was run twice and averages were combined for analysis.
# [8] = system: Arabidopsis thaliana afb5‐1 mutant line; assay type: in vivo; details: for GR50 (DW % of NT) / GR50 (visual injury): afb5‐1, foliar application; for GR50 (DW % of NT): dry weight at 14 DAT; for Resistance ratio (afb5‐1 vs WT), DW: ratio of dry weight GR50 values; for Resistance ratio (afb5‐1 vs WT), DW / Resistance ratio (afb5‐1 vs WT), visual injury: foliar application; for Resistance ratio (afb5‐1 vs WT), visual injury: ratio of visual injury GR50 values
# Method: as §2, §3, §4
# AtAFB5 [9] = target: T2, AtAFB5; test: SPR relative binding (co-receptor complex formation with Aux/IAA7 degron), AtAFB5; details: 50 μM compound, compared to IAA
# Method: as §1
# T2 sequence (Q9LTX2 whole entry, other chains not shown): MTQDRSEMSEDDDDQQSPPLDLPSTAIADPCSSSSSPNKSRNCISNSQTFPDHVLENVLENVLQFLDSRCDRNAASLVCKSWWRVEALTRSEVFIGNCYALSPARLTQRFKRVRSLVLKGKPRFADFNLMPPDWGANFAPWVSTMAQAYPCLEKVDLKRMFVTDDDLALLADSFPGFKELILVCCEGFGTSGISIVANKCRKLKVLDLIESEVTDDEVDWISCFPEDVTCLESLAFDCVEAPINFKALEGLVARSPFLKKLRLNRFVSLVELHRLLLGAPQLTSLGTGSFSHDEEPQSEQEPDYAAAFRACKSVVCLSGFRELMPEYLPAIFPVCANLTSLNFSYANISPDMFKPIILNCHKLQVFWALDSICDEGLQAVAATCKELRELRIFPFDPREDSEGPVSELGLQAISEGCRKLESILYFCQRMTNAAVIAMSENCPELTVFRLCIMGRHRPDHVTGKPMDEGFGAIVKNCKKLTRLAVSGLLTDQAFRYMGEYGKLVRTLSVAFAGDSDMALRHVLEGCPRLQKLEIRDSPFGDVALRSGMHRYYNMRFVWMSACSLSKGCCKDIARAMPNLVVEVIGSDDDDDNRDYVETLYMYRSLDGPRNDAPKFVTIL
# T2 sequence (Q39255 whole entry partner, other chains not shown): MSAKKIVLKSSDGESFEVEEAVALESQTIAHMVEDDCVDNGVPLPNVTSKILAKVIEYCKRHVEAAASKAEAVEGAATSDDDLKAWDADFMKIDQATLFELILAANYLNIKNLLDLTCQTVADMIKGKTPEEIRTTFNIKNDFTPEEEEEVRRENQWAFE
# T1 sequence (Q9LW29 whole entry, other chains not shown): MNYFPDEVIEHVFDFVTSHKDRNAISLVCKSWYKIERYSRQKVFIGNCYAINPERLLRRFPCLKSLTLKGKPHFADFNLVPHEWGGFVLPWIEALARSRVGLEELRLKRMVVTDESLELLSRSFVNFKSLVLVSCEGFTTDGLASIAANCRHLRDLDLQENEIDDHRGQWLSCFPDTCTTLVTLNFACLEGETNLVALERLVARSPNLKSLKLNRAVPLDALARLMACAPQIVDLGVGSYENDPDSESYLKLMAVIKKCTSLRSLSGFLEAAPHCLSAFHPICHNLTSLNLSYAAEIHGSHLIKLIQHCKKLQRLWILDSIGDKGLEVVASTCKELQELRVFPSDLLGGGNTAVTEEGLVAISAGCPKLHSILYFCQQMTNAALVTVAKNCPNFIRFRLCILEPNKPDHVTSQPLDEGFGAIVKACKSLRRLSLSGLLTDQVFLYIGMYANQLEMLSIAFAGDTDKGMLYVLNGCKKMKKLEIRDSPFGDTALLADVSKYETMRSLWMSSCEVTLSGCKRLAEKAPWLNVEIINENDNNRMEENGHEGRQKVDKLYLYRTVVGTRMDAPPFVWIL
# T1 sequence (Q39255 whole entry partner, other chains not shown): as the sequence (Q39255 whole entry partner, other chains not shown) above
# T3 sequence (Q570C0 whole entry, other chains not shown): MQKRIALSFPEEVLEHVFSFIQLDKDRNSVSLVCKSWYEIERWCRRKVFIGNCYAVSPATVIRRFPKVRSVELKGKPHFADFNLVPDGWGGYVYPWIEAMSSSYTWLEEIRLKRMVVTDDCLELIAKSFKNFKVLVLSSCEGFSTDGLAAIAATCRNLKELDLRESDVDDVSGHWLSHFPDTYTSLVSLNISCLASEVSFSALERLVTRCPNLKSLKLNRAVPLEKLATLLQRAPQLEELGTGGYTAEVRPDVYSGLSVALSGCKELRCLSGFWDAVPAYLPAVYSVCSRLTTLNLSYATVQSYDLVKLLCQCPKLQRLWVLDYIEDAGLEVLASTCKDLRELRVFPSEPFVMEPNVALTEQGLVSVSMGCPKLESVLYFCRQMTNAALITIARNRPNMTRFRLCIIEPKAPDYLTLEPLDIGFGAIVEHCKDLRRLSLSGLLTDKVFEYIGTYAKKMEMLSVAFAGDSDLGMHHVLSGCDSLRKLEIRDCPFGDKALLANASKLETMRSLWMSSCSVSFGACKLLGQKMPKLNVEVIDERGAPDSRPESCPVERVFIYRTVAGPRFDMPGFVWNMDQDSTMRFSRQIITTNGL
# T3 sequence (Q39255 whole entry partner, other chains not shown): as the sequence (Q39255 whole entry partner, other chains not shown) above
SMILES,Kd (AtAFB2 [1]) [µM],Kd (AtAFB5 [2]) [µM],Kd (AtTIR1 [3]) [µM],"Fold higher affinity for TIR1 (AtTIR1 [3]; from KD values, TIR1 versus other receptors) [fold]",GR50 (DW % of NT) [4] [g ai ha^−1],GR50 (visual injury) [4] [g ai ha^−1],Relative binding (in words) (AtAFB2 [5]),Relative binding (in words) (AtTIR1 [6]),Resistance of afb5‐1 in root growth inhibition (in words) [7],GR50 (DW % of NT) [8] [g ai ha^−1],GR50 (visual injury) [8] [g ai ha^−1],"Resistance ratio (afb5‐1 vs WT), DW [8]","Resistance ratio (afb5‐1 vs WT), visual injury [8]",Relative binding (in words) (AtAFB5 [9])
"O=C(O)Cc1c[nH]c2ccccc12 [IAA, indole‐3‐acetic acid]",12.6,33,7.9,4,,,,,,,,,,
COc1c(Cl)ccc(Cl)c1C(=O)O [Dicamba],,,,,16.5,169,low binding,low binding,No resistance,60.8,290,3.7,1.7,low binding
COc1c(Cl)ccc(-c2nc(C(=O)O)c(Cl)c(N)c2F)c1F [Florpyrauxifen],105,2.7,62,,0.1,0.7,,,considerable resistance,1,5.2,10,7.4,
O=C(O)COc1nc(Cl)c(Cl)cc1Cl [Triclopyr],,,,,4.7,31.8,lower binding than IAA,lower binding than IAA,,18.4,41.8,3.9,1.3,lower binding than IAA
O=C(O)c1nc(Cl)ccc1Cl [Clopyralid],,,,,497,2698,relatively low binding,relatively low binding,considerable resistance,3999,4259,,1.6,relatively low binding
Cc1cc(Cl)ccc1OC(C)C(=O)O (centres unmarked) [mecoprop],,,,,,,lower binding,lower binding,,,,,,lower binding
Nc1cc(Cl)nc(C(=O)O)c1Cl [Aminopyralid],,,,,3.4,40.1,relatively low binding,relatively low binding,considerable resistance,68.7,,20.2,,relatively low binding
